Data taken from article PMC8703412 (Pharmaceuticals, 2021).
In brackets after ≈: the same amount, converted by molar mass. Read-outs that look alike come from different tables or passages of the source.

How the values were obtained:
[1] = system: Mycobacterium kansasii 6509/96 (clinical isolate); test: MIC micromethod in Šula's medium, M. kansasii; type: cell-based; conditions: Mycobacterium kansasii
[2] = system: Mycobacterium tuberculosis strain 331/88 (i.e., H37Rv); test: MIC micromethod in Šula's medium, drug-susceptible Mtb.; type: cell-based
[3] = Cytotoxicity, CellTiter 96 (MTS) assay; conditions: human, Cytotoxicity for HepG2 cells, IC50, 24 h incubation, 1–1000 µM
[4] = system: Mycobacterium avium 330/88; test: MIC micromethod in Šula's medium, M. avium; type: cell-based
[5] = 168 h, 7 d incubation, Table 1, read-out: MIC M. kansasii 6509/96 7 d
[6] = 336 h, 14 d incubation, Table 1, read-out: MIC M. kansasii 6509/96 14 d
[7] = 504 h, 21 d incubation, Table 1, read-out: MIC M. kansasii 6509/96 21 d
[8] = Mycobacterium tuberculosis, H37RV, 336 h, 14 d incubation, esters, Table 1, read-out: MIC Mtb. 331/88 14 d
[9] = Mycobacterium tuberculosis, H37RV, 504 h, 21 d incubation, esters, Table 1, read-out: MIC Mtb. 331/88 21 d
[10] = Mycobacterium avium, 330/88, 336 h, 14 d incubation, Table 1, read-out: MIC M. avium 330/88 14 d
[11] = Mycobacterium avium, 330/88, 504 h, 21 d incubation, Table 1, read-out: MIC M. avium 330/88 21 d
[12] = 168 h, 7 d incubation, precursors, Table 2, read-out: MIC M. kansasii 6509/96 7 d
[13] = 336 h, 14 d incubation, precursors, Table 2, read-out: MIC M. kansasii 6509/96 14 d
[14] = 504 h, read-out: MIC M. kansasii 6509/96 21 d
[15] = 504 h, 21 d incubation, precursors, Table 2, read-out: MIC M. kansasii 6509/96 21 d
[16] = 168 h, read-out: MIC M. kansasii 6509/96 7 d
[17] = 336 h, read-out: MIC M. kansasii 6509/96 14 d
[18] = Mycobacterium tuberculosis, H37RV, 336 h, 14 d incubation, precursors, Table 2, read-out: MIC Mtb. 331/88 14 d
[19] = Mycobacterium tuberculosis, H37RV, 504 h, 21 d incubation, precursors, Table 2, read-out: MIC Mtb. 331/88 21 d
[20] = Mycobacterium avium, 330/88, 336 h, read-out: MIC M. avium 330/88 14 d
[21] = Mycobacterium avium, 330/88, 504 h, read-out: MIC M. avium 330/88 21 d
[22] = Mycobacterium avium, 330/88, 336 h, 14 d incubation, precursors, Table 2, read-out: MIC M. avium 330/88 14 d
[23] = Mycobacterium avium, 330/88, 504 h, 21 d incubation, precursors, Table 2, read-out: MIC M. avium 330/88 21 d

Structure (SMILES) | MIC [1, 5] [µM] | MIC [1, 6] [µM] | MIC [1, 7] [µM] | melting point [°C] | MIC [2, 8] [µM] | MIC [2, 9] [µM] | IC50 at 24 h [3] [µM] | MIC [4, 10] [µM] | MIC [4, 11] [µM] | MIC [1, 14] [µM] | MIC [2, 18] [µM] | MIC [2, 19] [µM] | other results
C/C(=N\NC(=O)c1ccncc1)C(=O)OCCn1c([N+](=O)[O-])cnc1C [3q, 2-(2-Methyl-5-nitro-1H-imidazol-1-yl)ethyl (E)-2-(2 isonicotinoylhydrazineylidene)propanoate] | 2 (≈ 0.721 µg/mL) | 4 (≈ 1.44 µg/mL) | 4 (≈ 1.44 µg/mL) | 123 to 125.7 | 0.25 (≈ 0.0901 µg/mL) | 0.5 (≈ 0.18 µg/mL) | > 1000 | 500 (≈ 180 µg/mL) | 1000 (≈ 360 µg/mL) |  |  |  | 
NNC(=O)c1ccncc1 [INH 1, Isoniazid, reference compound] | 8 (≈ 1.1 µg/mL) | 8 (≈ 1.1 µg/mL) |  |  | 1 (≈ 0.137 µg/mL) | 1 (≈ 0.137 µg/mL) | > 1000 | > 250 | > 250 | 16 (≈ 2.19 µg/mL) |  |  | MIC [1, 12]: 4 µM (≈ 0.549 µg/mL); MIC [1, 13]: 8 µM (≈ 1.1 µg/mL); MIC [1, 15]: 8 µM (≈ 1.1 µg/mL); MIC ([2]; 14 d incubation, precursors, Table 2, read-out: MIC Mtb. 331/88 14 d): 1 µM (≈ 0.137 µg/mL); MIC ([2]; 21 d incubation, precursors, Table 2, read-out: MIC Mtb. 331/88 21 d): 1 µM (≈ 0.137 µg/mL); MIC ([4]; 14 d incubation, precursors, Table 2, read-out: MIC M. avium 330/88 14 d): >250 µM; MIC ([4]; 21 d incubation, precursors, Table 2, read-out: MIC M. avium 330/88 21 d): >250 µM
CCSC(=O)/C(C)=N/NC(=O)c1ccncc1 [3r, S-Ethyl (E)-2-(2-isonicotinoylhydrazineylidene)propanethioate] | 1 (≈ 0.251 µg/mL) | 2 (≈ 0.503 µg/mL) | 4 (≈ 1.01 µg/mL) | 158 to 160 | 0.25 (≈ 0.0628 µg/mL) | 0.25 (≈ 0.0628 µg/mL) | > 1000 | 250 (≈ 62.8 µg/mL) | 500 (≈ 126 µg/mL) |  |  |  | 
Oc1cccc2cccnc12 [Quinolin-8-ol, reference compound] |  |  |  |  |  |  |  |  |  | 32 (≈ 4.65 µg/mL) | 8 (≈ 1.16 µg/mL) | 8 (≈ 1.16 µg/mL) | MIC [1, 16]: 16 µM (≈ 2.32 µg/mL); MIC [1, 17]: 32 µM (≈ 4.65 µg/mL); MIC [4, 20]: 64 µM (≈ 9.29 µg/mL); MIC [4, 21]: 64 µM (≈ 9.29 µg/mL)
Oc1cc(Cl)ccc1Oc1ccc(Cl)cc1Cl [Triclosan, 5-chloro-2-(2,4-dichlorophenoxy)phenol, reference compound] |  |  |  |  |  |  |  |  |  | 32 (≈ 9.27 µg/mL) | 32 (≈ 9.27 µg/mL) | 32 (≈ 9.27 µg/mL) | MIC [1, 16]: 16 µM (≈ 4.63 µg/mL); MIC [1, 17]: 32 µM (≈ 9.27 µg/mL); MIC [4, 20]: 64 µM (≈ 18.5 µg/mL); MIC [4, 21]: 64 µM (≈ 18.5 µg/mL)
C/C(=N\NC(=O)c1ccncc1)C(=O)Oc1ccc(Cl)cc1 [3g, 4-Chlorophenyl (E)-2-(2-isonicotinoylhydrazineylidene)propanoate] | 4 (≈ 1.27 µg/mL) | 8 (≈ 2.54 µg/mL) | 16 (≈ 5.08 µg/mL) | 184 to 186.1 | ≤ 0.125 | ≤ 0.125 | > 1000 | 500 (≈ 159 µg/mL) | 1000 (≈ 318 µg/mL) |  |  |  | 
Oc1ccc(Oc2ccccc2)cc1 [4-phenoxyphenol, reference compound] |  |  |  |  |  |  |  |  |  |  | 64 (≈ 11.9 µg/mL) | 64 (≈ 11.9 µg/mL) | MIC [1, 12]: 32 µM (≈ 5.96 µg/mL); MIC [1, 13]: 64 µM (≈ 11.9 µg/mL); MIC [1, 15]: 125 µM (≈ 23.3 µg/mL); MIC [4, 22]: 250 µM (≈ 46.6 µg/mL); MIC [4, 23]: 500 µM (≈ 93.1 µg/mL)
C/C(=N\NC(=O)c1ccncc1)C(=O)OCc1ccncc1 [3n, Pyridin-4-ylmethyl (E)-2-(2-isonicotinoylhydrazineylidene)propanoate] | 8 (≈ 2.39 µg/mL) | 16 (≈ 4.77 µg/mL) | 16 (≈ 4.77 µg/mL) | 126 to 128 | 0.5 (≈ 0.149 µg/mL) | 1 (≈ 0.298 µg/mL) | > 1000 | ≥ 1000 | ≥ 1000 |  |  |  | MIC ([1]; 504 h, text summary over 7, 14 and 21 d, read-out: MIC for M. kansasii 6509/96): 8 to 16 µM (≈ 2.39 to 4.77 µg/mL); MIC ([2]; Mycobacterium tuberculosis, H37RV, 504 h, 14 and 21 d, read-out: MIC for Mtb.): 0.5 to 1 µM (≈ 0.149 to 0.298 µg/mL)
CC(=O)Nc1ccc(O)cc1 [Paracetamol, reference compound] |  |  |  |  |  |  |  |  |  |  | > 1000 | > 1000 | MIC [4, 22]: > 1000 µM; MIC [4, 23]: > 1000 µM
Cc1ccc(C(C)C)cc1O [Carvacrol, reference compound] |  |  |  |  |  |  |  |  |  | 500 (≈ 75.1 µg/mL) | 125 (≈ 18.8 µg/mL) | 250 (≈ 37.6 µg/mL) | MIC [1, 16]: 125 µM (≈ 18.8 µg/mL); MIC [1, 17]: 250 µM (≈ 37.6 µg/mL); MIC [4, 20]: 250 µM (≈ 37.6 µg/mL); MIC [4, 21]: 500 µM (≈ 75.1 µg/mL)
COC(=O)/C(C)=N/NC(=O)c1ccncc1 [3a, Methyl (E)-2-(2-isonicotinoylhydrazineylidene)propanoate] | 2 (≈ 0.442 µg/mL) | 4 (≈ 0.885 µg/mL) | 8 (≈ 1.77 µg/mL) | 122 to 124.8 | 0.25 (≈ 0.0553 µg/mL) | 0.25 (≈ 0.0553 µg/mL) | > 1000 | 500 (≈ 111 µg/mL) | 1000 (≈ 221 µg/mL) |  |  |  | 
